In patent US7199286B2, “Plant-derived novel pathogen and SAR-induction chemical induced promoters, and fragments thereof” (Syngenta Participations AG, priority 1999, dated 2007):

Tested on: NI16 promoter fragment 274 bp
Assay: GUS florescence assay of promoter::GUS plants after SA application, NI16 274 bp fragment
Assay type: in vivo, Arabidopsis
Details: 5 mM SA spray
Excerpt: A binary promoter::reporter plasmid (pNOV2374) for Arabidopsis transformation was constructed. The regulatory/promoter sequence was fused to the GUS reporter gene (Jefferson et al. (1987) EMBO J 6: 3901-3907) by recombination using […] Technology according to the manufacturer's protocol as described in the Instruction Manual (LifeTechnologies, Rockville, Md.). The construct was then transformed into Agrobacterium tumefaciens strains by electroporation. pNOV2374 is a binary vector with a VS1 origin of replication, a copy of the Agrobacterium virg gene in the backbone, and a Basta® resistance selectable marker cassette between the left and right border sequences of the T-DNA. The Basta® selectable marker cassette comprises the Agrobacterium tumefaciens manopine synthase promoter (AtMas) (Barker et al., Plant Mol. Biol. 2, 335-350 (1983)) operably linked to the gene encoding Basta® resistance (i.e., the “BAR” gene, phosphinothricin acetyl transferase) (White et al., Nucl Acids Res 18: 1062 (1990)) and the 35S terminator. The AtMas promoter, the BAR coding sequence, and the 35S terminator are located at nt 4211 to nt 4679, nt 4680 to nt 5228, and nt 5263 to nt 5488, respectively, of pNOV2374. The vector contains […] recombination components, which were introduced into the binary vector backbone by ligating a blunt-ended cassette containing attR sites, ccdB, and a cholramphenicol resistance marker using the […] Vector Conversion System (LifeTechnologies, Rockville, Md.). The […] cassette was located between nt 126 and 1818 of pNOV2374. The promoter cassettes were inserted through an LR recombination reaction whereby the DNA sequence of pNOV2374 between nt 126 and nt 1818 were removed and replaced with the promoter of interest flanked by att sequences. […] The GIG gene (SEQ ID NO:29) contains the ST-LS1 intron from Solanum tuberosum at nt 385 to nt 576 of GUS (obtained from Dr. Stanton […], Purdue University, and described in Narasimhulu, et al. (1996) Plant Cell 8: 873-886.). […] The treatment was applied as a fine mist to the leaves. […] For quantitative analysis of promoter activity following induction treatments or in various Arabidopsis tissues and organs, GUS expression is measured florometrically. Tissue samples were harvested and ground in ice cold GUS extraction buffer (50 mM Na2HPO4 pH 7.0, 5 mM DTT, 1 mM Na2EDTA, 0.1% TritonX100, 0.1% sarcosyl). Ground samples were spun in a microfuge at 10,000 rpm for 15 minutes at 4° C. Following centrifugation, the supernatant was removed for the GUS assay and for a protein concentration determination. To measure GUS activity, the plant extract was assayed in GUS assay buffer (50 mM Na2HPO4 pH 7.0, 5 mM DTT, 1 mM Na2EDTA, 0.1% TritonX100, 0.1% sarcosyl, 1 mM 4-Methylumbelliferyl-beta-D-glucuronic acid dihydrate (MUG)), pre-warmed to 37° C. Reactions were incubated, and 100 uL aliquots were removed at 10 minute intervals over 30 minutes to stop the reaction by adding the 100 uL aliquots to tubes containing 900 uL of 2% Na2CO3. The stopped reactions were then read on a Tecan Spectroflourometer at 365 nm excitation and 455 emission wavelengths. Protein concentrations were determined using the BCA assay following the manufacturer's protocol. GUS activity is expressed as pmol MU/mg protein/min.

Question: `O=C(O)c1ccccc1O` [SA, salicylic acid] was tested. Which “GUS Activity Induced by SA” value (2 h) did it give?
Answer: The value was 27.5 pmol/mg protein/min.

Question: What about the “GUS activity Fold-change relative to T0 (uninduced)” value (2 h) of the same molecule?
Answer: The value was 1.4 fold.

Question: What about the “GUS Activity Induced by SA” value (4 h) of the same molecule?
Answer: The value was 58.7 pmol/mg protein/min.

Question: What about the “GUS activity Fold-change relative to T0 (uninduced)” value (4 h) of the same molecule?
Answer: Its value is 3.0 fold.

Question: What about the “GUS Activity Induced by SA” value (8 h) of the same molecule?
Answer: The value was 150.8 pmol/mg protein/min.

Question: And the “GUS activity Fold-change relative to T0 (uninduced)” value (8 h)?
Answer: Its value is 7.8 fold.

Question: What about the “GUS Activity Induced by SA” value (24 h) of the same molecule?
Answer: Its value is 230.3 pmol/mg protein/min.
